Results reported in ChEMBL document CHEMBL5303573, “Mapping human microbiome drug metabolism by gut bacteria and their genes” (Nature, 2019).

Legend:
[1] = The drug is tested on Bifidobacterium longum subsp. Infantis strain: CCUG52486 for biotransformation. The drug concentrations were measured before and after a 12-h incubation by liquid-chromatography-coupled mass spectrometry (LC–MS); conditions: 2 µM
[2] = The drug is tested on Clostridium ramosum strain: DSM1402 for biotransformation. The drug concentrations were measured before and after a 12-h incubation by liquid-chromatography-coupled mass spectrometry (LC–MS); conditions: thomasclavelia ramosa, 2 µM
[3] = The drug is tested on Providencia stuartii strain: ATCC25827 for biotransformation. The drug concentrations were measured before and after a 12-h incubation by liquid-chromatography-coupled mass spectrometry (LC–MS); conditions: 2 µM
[4] = The drug is tested on Clostridium sporogenes strain: ATCC15579 for biotransformation. The drug concentrations were measured before and after a 12-h incubation by liquid-chromatography-coupled mass spectrometry (LC–MS); conditions: 2 µM
[5] = The drug is tested on Bacteroides fragilis strain: ATCC43859 for biotransformation. The drug concentrations were measured before and after a 12-h incubation by liquid-chromatography-coupled mass spectrometry (LC–MS); conditions: 2 µM
[6] = bacteroides eggerthii, 12 h, 2 µM
Description: The drug is tested on Bacteroides eggerthii strain: DSM20697 for biotransformation. The drug concentrations were measured before and after a 12-h incubation by liquid-chromatography-coupled mass spectrometry (LC–MS)

[7] = The drug is tested on Eubacterium rectale strain: ATCC33656 for biotransformation. The drug concentrations were measured before and after a 12-h incubation by liquid-chromatography-coupled mass spectrometry (LC–MS); conditions: agathobacter rectalis, 2 µM
[8] = The drug is tested on Bacteroides dorei strain: DSM17855 for biotransformation. The drug concentrations were measured before and after a 12-h incubation by liquid-chromatography-coupled mass spectrometry (LC–MS); conditions: phocaeicola dorei, 2 µM
[9] = roseburia intestinalis, 12 h, 2 µM
Description: The drug is tested on Roseburia intestinalis strain: L1-82 for biotransformation. The drug concentrations were measured before and after a 12-h incubation by liquid-chromatography-coupled mass spectrometry (LC–MS)

[10] = The drug is tested on Collinsella intestinalis strain: DSM13280 for biotransformation. The drug concentrations were measured before and after a 12-h incubation by liquid-chromatography-coupled mass spectrometry (LC–MS); conditions: 2 µM
[11] = segatella copri, 12 h, 2 µM
Description: The drug is tested on Prevotella copri strain: DSM18205 for biotransformation. The drug concentrations were measured before and after a 12-h incubation by liquid-chromatography-coupled mass spectrometry (LC–MS)

[12] = The drug is tested on Clostridium asparagiforme strain: DSM15981 for biotransformation. The drug concentrations were measured before and after a 12-h incubation by liquid-chromatography-coupled mass spectrometry (LC–MS); type: ADME; set-up: dose 2 uM, timepoint 0 vs 12 hours; conditions: enterocloster asparagiformis, 2 µM
[13] = bacteroides intestinalis, 12 h, 2 µM
Description: The drug is tested on Bacteroides intestinalis strain: DSM17393 for biotransformation. The drug concentrations were measured before and after a 12-h incubation by liquid-chromatography-coupled mass spectrometry (LC–MS)

[14] = The drug is tested on Coprococcus comes strain: ATCC27758 for biotransformation. The drug concentrations were measured before and after a 12-h incubation by liquid-chromatography-coupled mass spectrometry (LC–MS); type: ADME; set-up: dose 2 uM, timepoint 0 vs 12 hours; conditions: 2 µM
[15] = The drug is tested on Collinsella aerofaciens strain: ATCC25986 for biotransformation. The drug concentrations were measured before and after a 12-h incubation by liquid-chromatography-coupled mass spectrometry (LC–MS); conditions: 2 µM
[16] = bacteroides thetaiotaomicron, 12 h, 2 µM
Description: The drug is tested on Bacteroides thetaiotaomicron strain: 7330 for biotransformation. The drug concentrations were measured before and after a 12-h incubation by liquid-chromatography-coupled mass spectrometry (LC–MS)

[17] = The drug is tested on Bifidobacterium ruminantium strain: fecal isolate for biotransformation. The drug concentrations were measured before and after a 12-h incubation by liquid-chromatography-coupled mass spectrometry (LC–MS); conditions: 2 µM
[18] = The drug is tested on Bacteroides pectinophilus strain: ATCC43243 for biotransformation. The drug concentrations were measured before and after a 12-h incubation by liquid-chromatography-coupled mass spectrometry (LC–MS); conditions: 2 µM
[19] = The drug is tested on Escherichia coli strain: BW25113 for biotransformation. The drug concentrations were measured before and after a 12-h incubation by liquid-chromatography-coupled mass spectrometry (LC–MS); conditions: 2 µM
[20] = The drug is tested on Clostridium sp. strain: fecal isolate for biotransformation. The drug concentrations were measured before and after a 12-h incubation by liquid-chromatography-coupled mass spectrometry (LC–MS); conditions: 2 µM

Bacterial Biotransformation [1] | Bacterial Biotransformation [2] | Bacterial Biotransformation [3] | Bacterial Biotransformation [4] | Bacterial Biotransformation [5] | Bacterial Biotransformation [6] | Bacterial Biotransformation [7] | Bacterial Biotransformation [8] | Bacterial Biotransformation [9] | Bacterial Biotransformation [10] | Bacterial Biotransformation [11] | Bacterial Biotransformation [12] | Bacterial Biotransformation [13] | Bacterial Biotransformation [14] | Bacterial Biotransformation [15] | Bacterial Biotransformation [16] | Bacterial Biotransformation [17] | Bacterial Biotransformation [18] | Bacterial Biotransformation [20] | SMILES | Bacterial Biotransformation [19]
Compound NOT metabolized | Compound NOT metabolized | Compound NOT metabolized | Compound NOT metabolized | Compound NOT metabolized | Compound NOT metabolized | Compound NOT metabolized | Compound NOT metabolized | Compound NOT metabolized | Compound NOT metabolized | Compound NOT metabolized | Compound NOT metabolized | Compound NOT metabolized | Compound NOT metabolized | Compound NOT metabolized | Compound NOT metabolized | Compound NOT metabolized | – | – | COc1ccccc1OCC(O)COC(N)=O (stereo unspecified) [METHOCARBAMOL] | –
Compound NOT metabolized | Compound NOT metabolized | Compound NOT metabolized | Compound NOT metabolized | Compound NOT metabolized | Compound NOT metabolized | – | – | Compound NOT metabolized | Compound NOT metabolized | – | Compound NOT metabolized | – | – | Compound NOT metabolized | Compound NOT metabolized | Compound NOT metabolized | – | – | CN(C(=O)CN(CCO)CC(=O)N(C)C(C)(C)Cc1ccccc1)C(C)(C)Cc1ccccc1 [OXETHAZAINE] | –
Compound metabolized | – | – | Compound NOT metabolized | Compound NOT metabolized | Compound NOT metabolized | Compound NOT metabolized | Compound metabolized | Compound NOT metabolized | Compound NOT metabolized | Compound NOT metabolized | Compound NOT metabolized | Compound metabolized | Compound metabolized | Compound metabolized | Compound metabolized | Compound NOT metabolized | Compound NOT metabolized | Compound metabolized | COc1ccc([C@@H]2Sc3ccccc3N(CCN(C)C)C(=O)[C@@H]2OC(C)=O)cc1 [DILTIAZEM] | Compound NOT metabolized

More lines, now with the values behind:

SMILES | Bacterial Biotransformation [1] | Bacterial Biotransformation [2] | Bacterial Biotransformation [3] | Bacterial Biotransformation [4] | Bacterial Biotransformation [5] | Bacterial Biotransformation [6] | Bacterial Biotransformation [7] | Bacterial Biotransformation [8] | Bacterial Biotransformation [9] | Bacterial Biotransformation [10] | Bacterial Biotransformation [11] | Bacterial Biotransformation [12] | Bacterial Biotransformation [13] | Bacterial Biotransformation [14] | Bacterial Biotransformation [15] | Bacterial Biotransformation [16] | Bacterial Biotransformation [17] | Bacterial Biotransformation [18] | Bacterial Biotransformation [20] | Bacterial Biotransformation [19]
CN(C)CCOC(C)(c1ccccc1)c1ccccn1.O=C(O)CCC(=O)O (stereo unspecified) [DOXYLAMINE SUCCINATE] | Compound NOT metabolized | Compound NOT metabolized | Compound NOT metabolized | Compound NOT metabolized | Compound NOT metabolized | Compound NOT metabolized | – | Compound NOT metabolized | Compound NOT metabolized | Compound NOT metabolized | Compound NOT metabolized | Compound NOT metabolized | Compound NOT metabolized | Compound NOT metabolized | Compound NOT metabolized | Compound NOT metabolized | – | Compound NOT metabolized | – | Compound NOT metabolized
OCCN1CCN(CCCN2c3ccccc3Sc3ccc(C(F)(F)F)cc32)CC1 [FLUPHENAZINE] | Compound NOT metabolized | Compound metabolized | – | Compound NOT metabolized | Compound NOT metabolized | Compound NOT metabolized | Compound metabolized | Compound metabolized | Compound metabolized | Compound NOT metabolized | Compound metabolized | Compound NOT metabolized | Compound metabolized | Compound metabolized | Compound NOT metabolized | Compound metabolized | Compound NOT metabolized | Compound NOT metabolized | – | Compound metabolized
CCN(CC)CCOC(=O)C(Cc1cccc2ccccc12)CC1CCCO1.O=C(O)C(=O)O (stereo unspecified) [NAFRONYL OXALATE] | Compound NOT metabolized | Compound NOT metabolized | Compound NOT metabolized | Compound NOT metabolized | Compound NOT metabolized | Compound NOT metabolized | Compound NOT metabolized | – | Compound NOT metabolized | Compound NOT metabolized | Compound metabolized | Compound NOT metabolized | Compound NOT metabolized | Compound NOT metabolized | Compound NOT metabolized | Compound NOT metabolized | Compound metabolized | – | – | –
Cc1ccccc1N1C(=O)c2cc(S(N)(=O)=O)c(Cl)cc2NC1C (stereo unspecified) [METOLAZONE] | Compound NOT metabolized | Compound NOT metabolized | Compound NOT metabolized | – | Compound NOT metabolized | Compound NOT metabolized | – | – | Compound NOT metabolized | Compound NOT metabolized | Compound NOT metabolized | Compound NOT metabolized | Compound NOT metabolized | – | Compound NOT metabolized | Compound NOT metabolized | Compound NOT metabolized | Compound NOT metabolized | – | –
Cc1cc2c(cc1S(N)(=O)=O)S(=O)(=O)CCC2 | Compound NOT metabolized | – | Compound NOT metabolized | Compound NOT metabolized | Compound NOT metabolized | Compound NOT metabolized | Compound NOT metabolized | Compound NOT metabolized | Compound NOT metabolized | Compound NOT metabolized | Compound NOT metabolized | Compound NOT metabolized | Compound NOT metabolized | Compound NOT metabolized | Compound NOT metabolized | Compound NOT metabolized | Compound NOT metabolized | Compound NOT metabolized | Compound NOT metabolized | Compound NOT metabolized
